Test results from patent publication US11597724B2, “Herbicidally active 3-phenylisoxazoline-5-carboxamides of tetrahydro and dihydrofuran carboxylic acids and esters” (Bayer Aktiengesellschaft, priority 2017, dated 2023).

Columns and labels:
Assay type in all cases: in vivo
Echinochloa crus-galli = assay: Pre-emergence herbicidal activity against ECHCG; details: dosage 80 g/ha, scored visually after about 3 weeks vs untreated controls (100% = plants have died, 0% = like control plants); for pest or weed control at 80 g/ha: Echinochloa crus-galli, 504 h
Excerpt: (§1) 1. Pre-Emergence Herbicidal Action and Crop Plant Compatibility Seeds of monocotyledonous and dicotyledonous weed plants and crop plants are placed in plastic or wood fiber pots and covered with soil. The compounds of the invention, formulated in the form of wettable powders (WP) or as emulsion concentrates (EC), are then applied onto the surface of the covering soil as aqueous suspension or emulsion with addition of 0.5% additive at a water application rate of 600 l/ha (converted). After the treatment, the pots are placed in a greenhouse and kept under good growth conditions for the trial plants. After about 3 weeks, the effect of the preparations is scored visually in comparison with untreated controls as percentages. For example, 100% activity=the plants have died, 0% activity=like control plants. ECHCG: Echinochloa crus-galli HORMU: Hordeum murinum

Lolium rigidum = assay: Pre-emergence herbicidal activity against LOLRI; details: dosage 80 g/ha; for pest or weed control at 80 g/ha: Lolium rigidum, 504 h
Excerpt: as §1, with “LOLRI: Lolium rigidum PHBPU: Pharbitis purpurea” for “ECHCG: Echinochloa crus-galli HORMU: Hordeum murinum”

Pharbitis purpurea = assay: Pre-emergence herbicidal activity against PHBPU; details: dosage 80 g/ha; for pest or weed control at 80 g/ha: Ipomoea purpurea, 504 h
Excerpt: as §1, with “LOLRI: Lolium rigidum PHBPU: Pharbitis purpurea” for “ECHCG: Echinochloa crus-galli HORMU: Hordeum murinum”

Viola tricolor = assay: Pre-emergence herbicidal activity against VIOTR; details: dosage 80 g/ha
Excerpt: as §1, with “VIOTR: Viola tricolor” for “ECHCG: Echinochloa crus-galli HORMU: Hordeum murinum”

Hordeum murinum = assay: Pre-emergence herbicidal activity against HORMU; details: dosage 80 g/ha; for pest or weed control at 80 g/ha: Hordeum murinum, 504 h
Excerpt: as §1

[1] = Pre-emergence treatment, summary over harmful plants; details: 504 h, application rate of 0.08 kg of active substance or less per hectare, read-out: herbicidal action, pre-emergence treatment (very good activity)
Excerpt: 1. Pre-Emergence Herbicidal Action and Crop Plant Compatibility
as §1, with “Seeds” for “1. Pre-Emergence Herbicidal Action and Crop Plant Compatibility Seeds”, “plants.” for “plants. ECHCG: Echinochloa crus-galli HORMU: Hordeum murinum”
As shown by the results, compounds according to the invention such as, for example, the compounds No. I-21 and other compounds from the tables (for example I-10, I-26, I-09, I-30, I-28, I-29, I-27, I-01, I-06, I-34, I-19, I-11, I-36, I-37, I-38, I-41, I-42, I-43, I-44, I-46, I-49) have, when used for pre-emergence treatment, very good activity (80% to 100% herbicidal action) against harmful plants such as Abutilon theophrasti, Alopecurus myosuroides, Amaranthus retroflexus, Avena fatua, Echinochloa crus-galli, Hordeum murinum, Lolium rigidum, Pharbitis purpurea, Polygonum convolvulus, Setaria viridis, Stellaria media, Veronica persica and Viola tricolor at an application rate of 0.08 kg of active substance or less per hectare.

Abutilon theophrasti = assay: Pre-emergence herbicidal activity against ABUTH; details: dosage 80 g/ha
Excerpt: as §1, with “ABUTH: Abutilon theophrasti ALOMY: Alopecurus myosuroides” for “ECHCG: Echinochloa crus-galli HORMU: Hordeum murinum”

Row | SMILES | pest or weed control at 80 g/ha (Echinochloa crus-galli) | pest or weed control at 80 g/ha (Lolium rigidum) | pest or weed control at 80 g/ha (Pharbitis purpurea) | Pre-emergence herbicidal activity against VIOTR in % (Viola tricolor) | pest or weed control at 80 g/ha (Hordeum murinum) | pest or weed control at 80 g/ha [1] | Pre-emergence herbicidal activity against ECHCG in % (Echinochloa crus-galli) | Pre-emergence herbicidal activity against LOLRI in % (Lolium rigidum) | Pre-emergence herbicidal activity against PHBPU in % (Pharbitis purpurea) | Pre-emergence herbicidal activity against HORMU in % (Hordeum murinum) | Pre-emergence herbicidal activity against ABUTH in % (Abutilon theophrasti)
1 | C=C[C@]1(C(=O)N[C@H]2CO[C@@H](C(=O)OC(C)C)C2)CC(c2cc(F)cc(F)c2)=NO1 (mixture of isomers) [I-36, isopropyl cis-4-[[(5S)-3-(3,5-difluorophenyl)-5-vinyl-4H-isoxazole-5-carbonyl]amino]tetrahydrofuran-2-carboxylate] | 100% | 100% | 90% | 100% | 90% | 80 to 100% |  |  |  |  | 
2 | CC(C)OC(=O)C1CC(NC(=O)C2(C)CC(c3cc(F)cc(F)c3)=NO2)CO1 (stereo not drawn) [I-44] |  |  |  | 80% |  |  | 90% | 100% | 80% | 100% | 
3 | C=C[C@]1(C(=O)N[C@H]2CO[C@@H](C(=O)OC)C2)CC(c2cc(F)cc(F)c2)=NO1 (single isomer, unassigned) [I-11] |  |  | 100% | 100% |  | 80 to 100% | 100% | 100% |  | 100% | 80%
4 | C=C[C@]1(C(=O)N[C@H]2CO[C@@H](C(=O)OCc3ccccc3)C2)CC(c2cc(F)cc(F)c2)=NO1 (mixture of isomers) [I-37, benzyl cis-4-[[(5S)-3-(3,5-difluorophenyl)-5-vinyl-4H-isoxazole-5-carbonyl]amino]tetrahydrofuran-2-carboxylate] | 90% | 100% | 90% | 100% | 100% | 80 to 100% |  |  |  |  | 
5 | CC1(C(=O)NC2COC(C(=O)OCc3ccccc3)C2)CC(c2cc(F)cc(F)c2)=NO1 (mixture of isomers) [I-45] |  |  |  | 100% |  |  | 100% | 100% | 90% | 100% | 
6 | COC(=O)[C@H]1C[C@@H](NC(=O)C2(C(F)(F)F)CC(c3cc(F)cc(F)c3)=NO2)CO1 (relative stereo) [I-06, methyl cis-4-[[3-(3,5-difluorophenyl)-5-(trifluoromethyl)-4H-isoxazole-5-carbonyl]amino]tetrahydrofuran-2-carboxylate] | 80% |  | 80% | 80% |  | 80 to 100% |  |  |  |  | 100%
7 | COC(=O)C1CC(NC(=O)C2(C(C)(F)F)CC(c3cc(F)cc(F)c3)=NO2)CO1 (stereo not drawn) [I-49] |  |  |  | 100% |  |  | 100% | 100% | 90% | 100% | 
8 | COC(=O)[C@H]1C[C@@H](NC(=O)C2(OC)CC(c3ccccc3)=NO2)CO1 (relative stereo) [I-14, methyl cis-4-[(5-methoxy-3-phenyl-4H-isoxazole-5-carbonyl)amino]tetrahydrofuran-2-carboxylate] |  |  |  |  |  |  |  |  |  |  | 100%
9 | COC(=O)[C@H]1C[C@@H](NC(=O)C2(OC)CC(c3cc(C)cc(Br)c3)=NO2)CO1 (relative stereo) [I-08, methyl cis-4-[[3-(3-bromo-5-methylphenyl)-5-methoxy-4H-isoxazole-5-carbonyl]amino]tetrahydrofuran-2-carboxylate] |  |  |  |  |  |  |  |  |  |  | 100%
10 | COC(=O)C1CC(NC(=O)C2(C)CC(c3cc(F)cc(F)c3)=NO2)CO1 (mixture of isomers) [I-48] |  |  |  | 100% |  |  | 90% | 100% | 90% | 100% | 
11 | CC(C)(C)OC(=O)C1CC(NC(=O)C2(C)CC(c3cc(F)cc(F)c3)=NO2)CO1 (mixture of isomers) [I-42] |  |  |  | 100% |  |  | 100% | 100% | 90% | 100% | 
12 | C=C[C@]1(C(=O)N[C@H]2CO[C@@H](C(=O)OCC)C2)CC(c2cc(F)cc(F)c2)=NO1 (mixture of isomers) [I-35, ethyl cis-4-[[(5S)-3-(3,5-difluorophenyl)-5-vinyl-4H-isoxazole-5-carbonyl]amino]tetrahydrofuran-2-carboxylate] | 100% | 100% | 90% | 100% | 100% |  |  |  |  |  | 
13 | COC(=O)[C@H]1C[C@@H](NC(=O)C2(C)CC(c3cc(C)cc(Br)c3)=NO2)CO1 (relative stereo) [I-04, methyl cis-4-[[3-(3-bromo-5-methylphenyl)-5-methyl-4H-isoxazole-5-carbonyl]amino]tetrahydrofuran-2-carboxylate] |  |  |  |  |  |  |  |  |  |  | 100%
14 | COC(=O)[C@H]1C[C@@H](NC(=O)[C@@]2(C)CC(c3cc(F)cc(F)c3)=NO2)CO1 (mixture of isomers) [I-09, methyl cis-4-[[(5R)-3-(3,5-difluorophenyl)-5-methyl-4H-isoxazole-5-carbonyl]amino]tetrahydrofuran-2-carboxylate] | 90% |  |  |  |  | 80 to 100% |  |  |  |  | 100%
